Drawing on patent US11603355B2, “Charged ion channel blockers and methods for use” (Nocion Therapeutics, Inc., priority 2019, dated 2023), this text covers inhibition and IC50 for 1 molecule.

Holding throughout (assay type): cell-based
Experiment [1] concerns the target T1, NaV1.7 (Homo sapiens, UniProt Q15858).
T1 construct: expressed in transfected cells; host or cells: HEK293 (tetracycline-inducible)
The experiment is described as follows: Manual patch clamp, external block of NaV1.7 current. The following applies: % inhibition at 10 μM test concentration, compound in external solution, HEK293 cells, read-out: Nav1.7 Extracellular Inhibition. The protocol: Representative compounds of the invention were synthesized according to the described methods and tested for the ability to inhibit voltage-gated sodium channels.
NaV1.7 was expressed in HEK293 cells upon induction with tetracycline. Cells were cultured in DMEM containing 10% dialyzed Fetal Bovine Serum (VWR, Radnor, Pa.), 1% Glutamax (VWR, Radnor, Pa.), 1% Penicillin-Streptomycin (VWR, Radnor, Pa.), 100 mg/L Hygromycin (Thermo Fisher Scientific, Waltham, Mass. and 5 mg/L Blasticidin (Alfa Aesar, Haverhill, Mass.). Cells were grown and maintained at 37° C. in a humidified environment containing 10% CO2 in air. Cells were detached from the culture flask for passage and harvested using 0.05% Trypsin-EDTA (Thermo Fisher Scientific, Waltham, Mass.). To induce NaV1.7, cells were induced with tetracycline (0.1-1 μg/mL, IBI Scientific, Peosta, Iowa) the day before recording and plated onto 24-well plates. Cells were washed with DPBS (VWR, Radnor, Pa.), trypsinized and then triturated five times in 10 mL of growth media to break apart cell aggregates. For one 24-well plate, 2 mL of cell suspension was mixed with 23 mL of fresh growth media and 0.1-1 μg/mL tetracycline added. 1 ml of mixed media with cells was then added to each well of a 24-well plate, with a 12 mm coverslip already placed in the bottom of the well. Cells were then incubated in 37° C. and 10% CO2 overnight.
The intracellular solution contained the following (in mM) CsCl 135, NaCl 10, EGTA 10, HEPES 10, MgCl2 2, adjusted to pH 7.2 with CsOH. The external solution was a normal Ringer solution containing (in mM) NaCl 155, HEPES 10, glucose 10, KCl 3.5, CaCl2 1.5, MgCl2 1 adjusted to pH 7.4 with NaOH. CsCl is from Alfa Aesar, Haverhill, Mass. All other chemicals are from Sigma-Aldrich, St. Louis, Mo. In order to test the degree of internal block by test compounds the compounds were dissolved in internal solution at the indicated test concentration. […] In order to test the degree of external block by test compounds the compounds were dissolved in external solution at the indicated test concentration.
18-24 hours after cells were induced with tetracycline, coverslips were placed into a chamber filled with Normal Ringer solution at room temperature and the chamber placed on a microscope. Pipettes were pulled from borosilicate glass on a P97 puller (Sutter Instrument, Novato, Calif.) and polished with a MF-830 Microforge (Narishige International USA, Inc., Amityville, N.Y.) to have a resistance of 1.5-2.5 MΩ when filled with CsCl internal solution at room temperature. Healthy cells (those that are round and translucent with no visible blemishes) were chosen for seal formation. A seal was formed between the pipette and the cell, and a brief pulse of suction was used to “break in” and establish the whole-cell configuration. The membrane potential was held at −100 mV before the voltage protocol began. Only cells with series resistance between 1.5-5 MΩ were retained for analysis. The voltage protocol was as follows: Cells were held at −100 mV for 12 ms followed by a hyperpolarizing step to −105 mV for 12 ms to monitor the leak. Cells were then stepped back to −100 mV for 40 ms. Cells were then depolarized to −20 mV for 10 ms and then returned to −100 mV for 26 ms.
Once the recording was started, the voltage protocol was run at 30 second intervals for 5 minutes to get a stable baseline. This is followed by 5 Hz stimulation of the same voltage protocol run until the end of experiment. […] The test compound is added for 5 minutes before washing out with normal Ringer's solution. Currents were recorded using PatchMaster software with Heka EPC10 (HEKA Electronics, Lambrecht, Germany). Only cells with inward current amplitudes at −20 mV between 400 pA and 4 nA were accepted. In addition, cells having leak currents greater than 10% of their current amplitudes were discarded. […]

The target of experiment [2] is T1, NaV1.7. The experiment is described as follows: Automated patch clamp (Qube 384), internal block of NaV1.7. The following applies: IC50, compound in internal solution, HEK293 cells, read-out: Nav1.7 Intracellular Inhibition. The gist of the method: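 Tetracycline-induced HEK293 cells, whole-cell Qube recording at 22 degrees; compounds dissolved in internal solution (CsF-based, pH 7.3), exchanged after baseline. Held at −100 mV, 10 ms pulses to −20 mV at 5 Hz for 10 min; remaining current (last 3 points) vs baseline, rundown-corrected with no-drug cells; Hill-fit IC50.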

Experiment [3] addresses T1, NaV1.7. The experiment is described as follows: Manual patch clamp, internal block of NaV1.7 current. The following applies: % inhibition at 3 μM test concentration, compound in internal solution, HEK293 cells, read-out: Nav1.7 Intracellular Inhibition. Summed up: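 Whole-cell recordings at room temperature in tetracycline-induced HEK293 cells, compound in CsCl internal solution (pH 7.2), held at −100 mV with 10 ms steps to −20 mV. Four 30 s 5 Hz trains after 5 min baseline; fraction of peak inward current remaining computed as Itest/Ibaseline.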

T1 sequence (Q15858 whole entry): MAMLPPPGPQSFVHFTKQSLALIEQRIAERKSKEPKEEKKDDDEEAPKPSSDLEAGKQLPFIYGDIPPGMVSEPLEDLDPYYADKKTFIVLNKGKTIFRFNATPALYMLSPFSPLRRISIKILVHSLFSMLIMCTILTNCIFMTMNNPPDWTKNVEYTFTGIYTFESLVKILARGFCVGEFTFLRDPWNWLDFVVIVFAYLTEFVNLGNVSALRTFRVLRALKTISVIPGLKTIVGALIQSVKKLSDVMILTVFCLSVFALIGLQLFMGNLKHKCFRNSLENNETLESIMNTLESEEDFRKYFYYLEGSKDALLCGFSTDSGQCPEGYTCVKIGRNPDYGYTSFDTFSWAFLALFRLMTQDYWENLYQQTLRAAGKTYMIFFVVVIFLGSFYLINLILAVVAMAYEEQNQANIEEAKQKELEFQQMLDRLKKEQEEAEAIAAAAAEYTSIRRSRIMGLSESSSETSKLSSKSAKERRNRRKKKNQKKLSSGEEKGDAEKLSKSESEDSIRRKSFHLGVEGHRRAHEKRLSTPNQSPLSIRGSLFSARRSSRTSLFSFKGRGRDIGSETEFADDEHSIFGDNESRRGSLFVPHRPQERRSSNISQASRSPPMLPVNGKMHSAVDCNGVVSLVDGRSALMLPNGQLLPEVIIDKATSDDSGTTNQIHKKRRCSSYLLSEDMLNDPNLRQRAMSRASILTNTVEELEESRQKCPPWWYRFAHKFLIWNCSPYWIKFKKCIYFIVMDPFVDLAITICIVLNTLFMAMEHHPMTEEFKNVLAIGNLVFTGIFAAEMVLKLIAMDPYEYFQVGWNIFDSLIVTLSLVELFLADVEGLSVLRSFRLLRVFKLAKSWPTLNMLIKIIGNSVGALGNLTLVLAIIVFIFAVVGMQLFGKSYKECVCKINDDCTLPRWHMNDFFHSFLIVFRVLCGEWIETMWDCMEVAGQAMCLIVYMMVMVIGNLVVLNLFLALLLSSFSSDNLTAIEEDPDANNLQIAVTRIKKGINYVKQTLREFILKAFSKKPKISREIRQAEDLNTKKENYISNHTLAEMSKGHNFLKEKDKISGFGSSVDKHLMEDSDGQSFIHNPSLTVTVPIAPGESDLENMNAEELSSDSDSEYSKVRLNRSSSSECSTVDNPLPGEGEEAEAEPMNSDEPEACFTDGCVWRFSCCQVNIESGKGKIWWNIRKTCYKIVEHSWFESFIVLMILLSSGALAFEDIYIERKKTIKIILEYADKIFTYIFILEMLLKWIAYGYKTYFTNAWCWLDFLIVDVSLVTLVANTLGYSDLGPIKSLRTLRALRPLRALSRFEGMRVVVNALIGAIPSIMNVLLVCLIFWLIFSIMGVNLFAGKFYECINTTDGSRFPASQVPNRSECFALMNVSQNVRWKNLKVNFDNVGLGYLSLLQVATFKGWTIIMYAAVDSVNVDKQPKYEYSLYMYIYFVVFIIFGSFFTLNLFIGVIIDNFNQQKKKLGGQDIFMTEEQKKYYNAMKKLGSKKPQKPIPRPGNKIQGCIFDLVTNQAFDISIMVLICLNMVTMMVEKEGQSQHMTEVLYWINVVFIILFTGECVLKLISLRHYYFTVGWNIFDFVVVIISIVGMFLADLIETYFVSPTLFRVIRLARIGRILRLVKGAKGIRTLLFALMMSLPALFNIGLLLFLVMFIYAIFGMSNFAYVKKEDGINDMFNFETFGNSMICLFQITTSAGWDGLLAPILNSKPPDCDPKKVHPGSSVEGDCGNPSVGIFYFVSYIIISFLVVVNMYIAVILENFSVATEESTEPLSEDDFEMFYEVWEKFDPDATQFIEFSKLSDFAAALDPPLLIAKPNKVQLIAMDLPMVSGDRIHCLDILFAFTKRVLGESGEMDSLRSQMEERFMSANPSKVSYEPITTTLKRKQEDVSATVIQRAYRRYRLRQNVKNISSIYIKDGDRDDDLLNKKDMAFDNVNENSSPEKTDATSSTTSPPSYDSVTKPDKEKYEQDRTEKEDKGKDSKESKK

For `CCc1cccc(C)c1NC(=O)C[N+]1(Cc2ccccc2)CCCCCC1` [Compound 70A], the inhibition at 10 µM in experiment [1] lay within 40 to 70%. Moreover, the IC50 in experiment [2] lay within 300 to 1000 nM. For the same molecule, in experiment [3], the inhibition at 3 µM was greater than 90%.
